This passage reports IC50 results from patent US20190135793A1, “HETEROCYCLIC INHIBITORS OF KDM5 FOR THE TREATMENT OF DISEASE” (Board of Regents, The University of Texas System, priority 2017, published 2019).

Like-named read-outs stand apart in the source and are kept apart here.

One assay has as its target T1, KDM5B (Homo sapiens, UniProt Q9UGL1).
T1 construct: Full length of KDM5B and KDM4C protein were purchased from Active Motif; purchased Active Motif 31832
Description: biochemical. On the procedure: (§1) KDM4C and KDM5B AlphaScreen Assay Material and Method
(§2) Compounds disclosed herein were (and can be) screened using the following assay.
Peptides used in all experiments were purchased from Anaspe. […] Final concentration of KDM5B and KDM4C used in the assay were 0.5 nM and 0.2 nM. Final concentration of peptides for 5B and 4C used in the assay were 3 nM.
(§3) 4 μL of KDM5B or KDM4C protein were added to 384-well OptiPlate by using multiflow, followed by 4 μl of either buffer or compound. Plates were sealed, spun down and incubated at RT for 15 min. 4 μl of biotinylated peptide was added to the plate, the plate was incubated at room temperature for 25 minutes (KDM5B) and 30 minutes (KDM4C) after sealed and spun down. Streptavidin donor beads and acceptor beads were diluted and mixed in the detection buffer with 7.5 mM EDTA, followed by adding 8 μl of acceptor and donor beads mix to the plate, before the plate was sealed and incubated at room temperature for 3 h or overnight at dark. The plate was read on Envision plate reader (PerkinElmer) using Alphascreen protocol. IC50s were calculated in GraphPad Prism 6.

The target in the next assay is T2, KDM4C (Homo sapiens, UniProt Q9H3R0).
T2 construct: Full length of KDM5B and KDM4C protein were purchased from Active Motif; purchased Active Motif 31858
T2 sequence (Q9H3R0 1-1056): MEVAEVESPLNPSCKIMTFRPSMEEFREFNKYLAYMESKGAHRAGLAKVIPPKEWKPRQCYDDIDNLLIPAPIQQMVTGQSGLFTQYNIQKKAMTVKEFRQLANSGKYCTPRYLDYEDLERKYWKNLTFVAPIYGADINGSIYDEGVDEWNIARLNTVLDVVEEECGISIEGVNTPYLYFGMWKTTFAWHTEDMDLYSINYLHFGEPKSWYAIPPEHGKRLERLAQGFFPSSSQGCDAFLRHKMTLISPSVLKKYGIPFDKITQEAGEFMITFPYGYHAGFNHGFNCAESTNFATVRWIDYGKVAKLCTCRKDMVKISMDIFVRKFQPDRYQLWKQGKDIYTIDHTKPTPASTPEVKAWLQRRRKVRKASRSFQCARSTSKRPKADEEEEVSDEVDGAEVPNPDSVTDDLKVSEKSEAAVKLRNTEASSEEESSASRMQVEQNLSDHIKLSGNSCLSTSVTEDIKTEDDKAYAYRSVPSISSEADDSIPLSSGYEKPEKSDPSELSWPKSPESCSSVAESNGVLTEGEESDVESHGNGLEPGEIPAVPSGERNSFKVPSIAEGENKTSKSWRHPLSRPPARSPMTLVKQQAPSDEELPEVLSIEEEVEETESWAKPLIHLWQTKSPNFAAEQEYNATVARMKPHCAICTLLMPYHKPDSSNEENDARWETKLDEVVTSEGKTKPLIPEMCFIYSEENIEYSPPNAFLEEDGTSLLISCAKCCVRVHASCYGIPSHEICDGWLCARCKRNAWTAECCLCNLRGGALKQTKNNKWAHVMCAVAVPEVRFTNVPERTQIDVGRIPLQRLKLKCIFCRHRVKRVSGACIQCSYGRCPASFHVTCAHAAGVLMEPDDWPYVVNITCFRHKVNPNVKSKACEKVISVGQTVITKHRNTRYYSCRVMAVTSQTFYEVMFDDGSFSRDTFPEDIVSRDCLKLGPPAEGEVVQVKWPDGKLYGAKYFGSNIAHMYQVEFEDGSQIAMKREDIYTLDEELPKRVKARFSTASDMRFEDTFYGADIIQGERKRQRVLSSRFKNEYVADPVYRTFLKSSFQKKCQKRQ
Description: KDM4C AlphaScreen assay. In kind it is biochemical. How it is done: as §1, §2
Peptides used in all experiments were purchased from Anaspe. Full length of KDM5B and KDM4C protein were purchased from Active Motif: KDM5B (cat#31832) and KDM4C (Cat #31858). Final concentration of KDM5B and KDM4C used in the assay were 0.5 nM and 0.2 nM. Final concentration of peptides for 5B and 4C used in the assay were 3 nM.
as §3, with “AlphaScreen assays was conducted as following protocol: buffer used to make compound plate or DMSO is composed of 50 mM HEPES pH 7.4, 0.003% Tween-20; buffer used to dilute enzyme is composed of 50 mM HEPES pH 7.4, 0.003% Tween-20, 0.01% BSA, 500 μM TCEP; and buffer used to dilute the substrate is composed of 50 mM HEPES pH 7.4, 0.003% Tween-20, (NH4)2Fe(SO4)2 15 μM, alpha-ketoglutaric acid 4 μM and L-ascorbic acid 100 μM. 4 μL” for “4 μL”
In general terms: Alpha assays give light when donor and acceptor beads are brought close together.

Where [1] appears, read: AlphaScreen, full length KDM4C 0.2 nM, biotinylated H3K9Me3 peptide 3 nM, 30 minutes at room temperature.
[2] abbreviates: AlphaScreen, full length KDM5B 0.5 nM, biotinylated H3K4Me3 peptide 3 nM, 25 minutes at room temperature, read-out: KDM5B (IC50).

T1 sequence (Q9UGL1 whole entry): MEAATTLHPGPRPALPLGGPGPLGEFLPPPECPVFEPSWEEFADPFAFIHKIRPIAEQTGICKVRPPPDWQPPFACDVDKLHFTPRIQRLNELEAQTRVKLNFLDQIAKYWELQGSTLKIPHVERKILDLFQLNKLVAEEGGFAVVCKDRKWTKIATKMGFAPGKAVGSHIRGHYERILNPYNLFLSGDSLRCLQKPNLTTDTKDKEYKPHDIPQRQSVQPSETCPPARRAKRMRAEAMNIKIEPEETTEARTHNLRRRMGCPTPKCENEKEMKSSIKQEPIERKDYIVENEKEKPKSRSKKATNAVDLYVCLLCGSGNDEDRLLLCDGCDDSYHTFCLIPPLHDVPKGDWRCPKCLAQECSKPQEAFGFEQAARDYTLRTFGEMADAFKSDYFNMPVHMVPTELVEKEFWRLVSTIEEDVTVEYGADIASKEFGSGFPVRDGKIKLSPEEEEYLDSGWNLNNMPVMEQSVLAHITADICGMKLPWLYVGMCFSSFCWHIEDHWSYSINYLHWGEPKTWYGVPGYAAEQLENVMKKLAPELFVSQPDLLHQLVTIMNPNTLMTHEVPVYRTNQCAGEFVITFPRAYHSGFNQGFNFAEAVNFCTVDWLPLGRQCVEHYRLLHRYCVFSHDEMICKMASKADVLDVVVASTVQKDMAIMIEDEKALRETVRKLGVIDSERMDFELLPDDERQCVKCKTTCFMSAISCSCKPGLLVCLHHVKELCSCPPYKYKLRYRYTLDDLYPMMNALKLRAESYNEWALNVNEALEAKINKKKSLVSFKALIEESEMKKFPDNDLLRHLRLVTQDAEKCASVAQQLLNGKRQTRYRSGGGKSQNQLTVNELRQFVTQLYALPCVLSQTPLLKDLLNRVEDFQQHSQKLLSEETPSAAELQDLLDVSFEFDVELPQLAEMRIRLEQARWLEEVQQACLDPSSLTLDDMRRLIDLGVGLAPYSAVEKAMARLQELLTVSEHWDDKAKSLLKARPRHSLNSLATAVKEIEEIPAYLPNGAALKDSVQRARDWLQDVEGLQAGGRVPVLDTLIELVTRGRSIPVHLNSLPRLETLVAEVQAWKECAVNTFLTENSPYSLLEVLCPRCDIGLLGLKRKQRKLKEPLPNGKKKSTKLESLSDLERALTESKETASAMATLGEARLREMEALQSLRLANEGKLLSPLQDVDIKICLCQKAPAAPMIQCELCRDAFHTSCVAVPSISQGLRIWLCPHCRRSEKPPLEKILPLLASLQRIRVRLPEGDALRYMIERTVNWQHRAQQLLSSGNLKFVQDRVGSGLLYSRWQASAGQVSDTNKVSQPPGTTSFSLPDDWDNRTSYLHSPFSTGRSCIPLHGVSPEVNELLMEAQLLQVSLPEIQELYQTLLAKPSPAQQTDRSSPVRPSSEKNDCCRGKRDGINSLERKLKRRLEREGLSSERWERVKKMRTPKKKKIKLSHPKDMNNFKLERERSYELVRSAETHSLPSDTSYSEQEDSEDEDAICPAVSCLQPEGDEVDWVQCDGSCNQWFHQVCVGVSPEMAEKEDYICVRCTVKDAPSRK

On to `CC(C)c1c(O)nc(-n2ccnc2)nc1-c1cnn(CC(=O)NCC2CN(C)CCO2)c1` (stereo not drawn) [Example 97, 2-{4-[6-Hydroxy-2-(1H-imidazol-1-yl)-5-(propan-2-yl)pyrimidin-4-yl]-1H-pyrazol-1-yl}-N-[(4-methyl-morpholin-2-yl)methyl]-acetamide], for which the IC50 against KDM5B was 7 nM; against KDM4C (setting [1]), 613 nM.
In the same order, the values of `CC(C)c1c(O)nc(-c2cncs2)nc1OCc1cncnc1` [Example 143, 5-(Propan-2-yl)-6-(pyrimidin-5-ylmethoxy)-2-(1,3-thiazol-5-yl)pyrimidin-4-ol] are 138 nM and 2960 nM.
For the compound `CC(C)c1c(O)nc(-n2ccnc2)nc1OCC(=O)N1CCN(C)CC1` [Example 16, 2-{[6-hydroxy-2-(1H-imidazol-1-yl)-5-(propan-2-yl)pyrimidin-4-yl]oxy}-1-(4-methylpiperazin-1-yl)ethan-1-one], the concentration for half-maximal inhibition (IC50) is 26 nM against KDM5B and 5730 nM against KDM4C.
For the compound `CC(C)c1c(O)nc(-n2ccnc2)nc1OCC(=O)N1CCOCC1` [Example 142, 2-{[6-Hydroxy-2-(1H-imidazol-1-yl)-5-(propan-2-yl)pyrimidin-4-yl]oxy}-1-(morpholin-4-yl)ethan-1-one], the 50% inhibitory concentration (IC50) came to 35 nM on KDM5B and 2130 nM against KDM4C (setting [1]).
In the case of `CC(C)c1c(O)nc(-c2cncs2)nc1-c1cnn(C)c1` [Example 30, 5-isopropyl-6-(1-methyl-1H-pyrazol-4-yl)-2-(thiazol-5-yl)pyrimidin-4-ol], the values for the IC50 against KDM5B and at KDM4C (setting [1]) were 345 nM and 15300 nM, respectively.
In the same order, the values of `CC(C)c1c(O)nc(-c2cncs2)nc1-c1cnn(C2CCNCC2)c1` [Example 154, 6-[1-(Piperidin-4-yl)-1H-pyrazol-4-yl]-5-(propan-2-yl)-2-(1,3-thiazol-5-yl)pyrimidin-4-ol] are 2130 nM and 13900 nM.
For the compound `Cc1cn(-c2nc(O)c(C(C)C)c(OCc3cccnc3)n2)cn1` [Example 151, 2-(4-Methyl-1H-imidazol-1-yl)-5-(propan-2-yl)-6-(pyridin-3-ylmethoxy)-pyrimidin-4-ol], the IC50 on KDM5B (setting [2]) stood at 583 nM; against KDM4C (setting [1]), 8780 nM.
`CC(C)c1c(O)nc(-n2ccnc2)nc1-c1ccc(C(=O)O)nc1` [Example 121, 5-[6-Hydroxy-2-(1H-imidazol-1-yl)-5-(propan-2-yl)pyrimidin-4-yl]pyridine-2-carboxylic acid]: the IC50 on KDM5B was 18 nM; against KDM4C (setting [1]), 837 nM.
For `CC(C)c1c(O)nc(-n2ccnc2)nc1-c1cnn(CC(=O)NCCN(C)C)c1` [Example 91, N-[2-(Dimethylamino)ethyl]-2-{4-[6-hydroxy-2-(1H-imidazol-1-yl)-5-(propan-2-yl)pyrimidin-4-yl]-1H-pyrazol-1-yl}acetamide], in that order: 5 nM and 634 nM.
For `CC(C)c1c(O)nc(-n2ccnc2)nc1Oc1cccnc1` [Example 28a, 2-(1H-Imidazol-1-yl)-5-isopropyl-6-(pyridin-3-yloxy)pyrimidin-4-ol], in that order: 32 nM and 1750 nM.
As for `CC(C)c1c(O)nc(-c2cncs2)nc1OCC(C)(C)CO` [Example 147, 6-(3-Hydroxy-2,2-dimethylpropoxy)-5-(propan-2-yl)-2-(1,3-thiazol-5-yl)-pyrimidin-4-ol], the results for the IC50 against KDM5B and on KDM4C (setting [1]) were 1470 nM and 12400 nM, respectively.
For `CC(C)c1c(O)nc(-n2ccnc2)nc1-c1cccc(CO)c1` [Example 77, 6-[3-(Hydroxymethyl)-phenyl]-2-(1H-imidazol-1-yl)-5-(propan-2-yl)pyrimidin-4-ol], in that order: 38 nM and 2460 nM.
With `CC(C)c1c(O)nc(-n2ccnc2)nc1-c1cnn(CC(=O)NCCN(CC(F)(F)F)C2CC2)c1` [Example 111, N-[2-[Cyclopropyl(2,2,2-trifluoroethyl)amino]ethyl}-2-{4-[6-hydroxy-2-(1H-imidazol-1-yl)-5-(propan-2-yl)pyrimidin-4-yl]-1H-pyrazol-1-yl}acetamide], the figures for the concentration for half-maximal inhibition (IC50) on KDM5B and against KDM4C (setting [1]) were 21 nM and 2120 nM, respectively.
In the same order, the values of `CC(C)c1c(O)nc(-n2ccnc2)nc1-c1cnn(CC(=O)N2CCCC(C#N)C2)c1` (stereo not drawn) [Example 103, 1-(2-{4-[6-Hydroxy-2-(1H-imidazol-1-yl)-5-(propan-2-yl)pyrimidin-4-yl]-1H-pyrazol-1-yl}acetyl)-piperidine-3-carbonitrile] are 15 nM and 909 nM.
Regarding `CC(C)c1c(O)nc(-n2ccnc2)nc1-c1cnn(CC(N)=O)c1` [Example 7, 2-(4-(6-Hydroxy-2-(1H-imidazol-1-yl)-5-isopropylpyrimidin-4-yl)-1H-pyrazol-1-yl)-acetamide], the IC50 on KDM5B stood at 11 nM; on KDM4C (setting [1]), 1150 nM.
For `Cc1nc(-c2scnc2C(=O)NCc2ccccc2)nc(O)c1C(C)C` [Example 150, N-benzyl-5-[6-methyl-4-oxo-5-(propan-2-yl)-1,4-dihydropyrimidin-2-yl]-1,3-thiazole-4-carboxamide], in that order: 1120 nM and 16900 nM.
As for `CC(C)c1c(O)nc(-n2ccnc2)nc1OCc1cccnc1` [Example 29, 2-(1H-Imidazol-1-yl)-5-isopropyl-6-(pyridin-3-ylmethoxy)pyrimidin-4-ol], the IC50 was determined as 9 nM on KDM5B and 502 nM at KDM4C (setting [1]).
Turning to `Cc1nccn1-c1nc(O)c(C(C)C)c(-c2cnn(C(C)C)c2)n1` [Example 4, 5-isopropyl-6-(1-isopropyl-1H-pyrazol-4-yl)-2-(2-methyl-1H-imidazol-1-yl)pyrimidin-4-ol], the figures for the IC50 on KDM5B and against KDM4C (setting [1]) were 125 nM and 4480 nM, respectively.
Regarding `Cc1nc(-n2cnc(CO)c2)nc(O)c1C(C)C` [Example 24b, 2-[4-(hydroxymethyl)imidazol-1-yl]-5-isopropyl-6-methyl-pyrimidin-4-ol], the IC50 on KDM5B turned out to be 1260 nM; against KDM4C (setting [1]) it was 16800 nM.
Regarding `CC(C)c1c(O)nc(-n2ccnc2)nc1-c1cccc(C(=O)N2CCOCC2)c1` [Example 82, 2-(1H-Imidazol-1-yl)-6-[3-(morpholine-4-carbonyl)-phenyl]-5-(propan-2-yl)-pyrimidin-4-ol], the half-inhibitory concentration (IC50) on KDM5B is 73 nM; on KDM4C (setting [1]), 7970 nM.
`CC(C)c1c(O)nc(-n2ccnc2)nc1-c1ccc(S(=O)(=O)N(C)C)cc1` [Example 61, 4-[6-Hydroxy-2-(1H-imidazol-1-yl)-5-(propan-2-yl)pyrimidin-4-yl]-N,N-dimethylbenzene-1-sulfonamide]: the values for the IC50 at KDM5B (setting [2]) and at KDM4C (setting [1]) were 17 nM and 1480 nM, respectively.

As usually defined, the IC50 is the point on the concentration scale where inhibition reaches its midpoint.
